Assay [1] concerns L. braziliensis promastigotes. Kind of assay: Ultrastructural alterations by TEM, L. braziliensis. The note with it: 72 h at IC25 concentration. The assay is classed as cell-based, Leishmania braziliensis. How it is done:
(§1) Parasites were cultured at a density of 5 × 10^5 cells/mL with medium containing the tested compounds at IC25 concentrations. After 72 h at 28 °C, the cultures were processed using a technique previously described and analysed by TEM (LIBRA 120 PLUS, Zeiss, Barcelona, Spain).

In assay [2] the test system is L. infantum promastigotes. Kind of assay: Ultrastructural alterations by TEM, L. infantum. The class given is cell-based, Leishmania infantum. The note with it: 72 h at IC25 concentration. How it is done: as §1
For assay [3], the system named is Leishmania donovani promastigote forms. Kind of assay: Promastigote test (extracellular forms), L. donovani. The class given is cell-based. The note with it: 72 h; 100 µM to 1 µM; mean ± SD. The method, then: (§2) Promastigote forms of three different Leishmania spp., L. donovani (MHOM/PE/84/LC26), L. infantum (MCAN/ES/2001/UCM-10) and L. braziliensis (MHOM/BR/1975/M2904), were cultured in vitro in Medium Trypanosomes Liquid (MTL) supplemented with 10% inactivated foetal calf serum (FCS) in an air atmosphere at 28 °C, in Roux flasks (Corning, Manassas, VA, USA) with a surface area of 75 cm^2, according to [33].
(§3) The compounds and the reference drug Glu were dissolved in DMSO (Panreac, Barcelona, Spain) and tested from 100 µM to 1 µM with 0.1% (v/v) DMSO final concentration in plates. Therefore, controls were prepared including 0.1% (v/v) of this component, as previously described.
(§4) Promastigote forms were collected in the exponential growth phase and seeded at 1 × 10^5 parasites/mL in 24-well microplates (Nunc, Naperville, IL, USA), after adding each compound at concentrations from 100 µM to 1 µM and cultured in 500 μL/well volumes at 28 °C. After 72 h incubation, the leishmanicidal activity was assessed using a Neubauer haemocytometric chamber in comparison with the control cultures. […] Each drug concentration was tested in triplicate in four separate determinations.

Assay [4] relates to Leishmania infantum promastigote forms. In words: Promastigote test (extracellular forms), L. infantum. The class given is cell-based. The note with it: 72 h; 100 µM to 1 µM; mean ± SD of four determinations. The method, then: as §2, §3, §4
Assay [5] concerns L. infantum promastigotes. Kind of assay: Metabolite excretion by 1H-NMR, L. infantum. The assay is classed as cell-based, Leishmania infantum. The note with it: IC25 concentration, 72 h, vs untreated. How it is done:
Trypanosomatids catabolizes glucose at a high rate, excreting into the medium partly oxidized end products such as acetate, succinate, L-alanine or L-lactate.
Cultures of L. donovani, L. infantum and L. braziliensis promastigotes were seeded in culture flaks at 5 × 10^5 cells/mL, and after the addition of the compounds at IC25 concentrations at 28 °C. Control cultures were also included. After 72 h of incubation, parasites were centrifuged at 400 × g for 10 min, and supernatants were collected in order to determine the excreted metabolites by ^1H-NMR. Chemical shifts were expressed in parts per million (ppm) using sodium 2,2-dimethyl-2-silapentane-5-sulphonate as the reference signal. The One-dimensional ^1H-NMR spectra were acquired with a VARIAN DIRECT DRIVE 400 MHz Bruker spectrometer (Rheinstetten, Germany) with an AutoX probe using D2O as solvent. The chemical shifts used to identify the respective metabolites were consistent with those described previously by some of the authors. The spectral region of 1.0–5.5 ppm was bucketed into a frequency window of 0.1 ppm. The peak (2.6 ppm) corresponding to DMSO was removed before binning, and the regions corresponding to water (4.5–5.5 ppm) and glucose (3.4–3.8 ppm) were excluded during binning to avoid artefacts due to pre-saturation. […]

Assay [6] relates to Leishmania braziliensis amastigote forms. In words: Amastigote test (intracellular forms in J774.2 macrophages), L. braziliensis. The assay is classed as cell-based. The note with it: 72 h, mean ± SD. How it is done:
as §2, §3
(§5) J774.2 macrophages were grown and seeded at a density of 1 × 10^4 cells/well in 24-well microplates (Nunc) with rounded coverslips on the bottom and cultured for 48 h in humidified 95% air, 5% CO2 atmosphere at 37 °C in Minimal Essential Medium (MEM) with 2 mM glutamine and 20% (v/v) inactivated FCS. Adherent macrophages were infected with metacyclic promastigotes in the stationary growth phase of L. donovani, L. infantum and L. braziliensis at a multiplicity of infection (MOI) ratio of 1:10 and maintained for 24 h. Non-phagocytosed parasites were removed by washing, and after addition of the testing compounds at concentrations from 100 µM to 1 µM, cultured in 500 μL/well volumes. Control cultures were also included. After 72 h incubation, leishmanicidal activity was assessed based on the number of amastigotes in treated and untreated cultures in methanol-fixed and Giemsa-stained preparations by analyzing 500 host cells distributed in randomly chosen microscopic fields. The leishmanicidal effect was calculated as described to determine the leishmanicidal activity in the promastigote forms. Each drug concentration was tested in triplicate in four separate determinations.

Assay [7] relates to Leishmania braziliensis promastigote forms. Kind of assay: Promastigote test (extracellular forms), L. braziliensis. The class given is cell-based. The note with it: 72 h; 100 µM to 1 µM; mean ± SD. How it is done:
as §2, §3, §4

Assay [8] addresses T1, human CuZn-SOD (Homo sapiens, UniProt P00441).
T1 construct: purchased Sigma Chemical Co. (St. Louis, MO, USA)
Kind of assay: SOD inhibition assay, human CuZn-SOD. The assay is classed as biochemical. The note with it: assayed 100 µM to 0.1 µM; non-linear regression. How it is done:
The previous extraordinary results prompted us to evaluate the inhibitory effect of 3, 5–8 and 10 on the SOD activity. […]
(§6) Parasite cells were collected in the exponential growth phase by centrifugation (400g for 10 min). The pellet obtained after centrifugation was lysated by sonication, processed according to [38] and obtained the homogenate fraction which contained the parasite Fe-SOD. The protein content was quantified using the Sigma Bradford test, which uses BSA as a standard (no trace ability was certified for the BSA standard). Superoxide dismutase activities were determined using a method previously described, which measures the reduction in nitrobluetetrazolium (NBT) by superoxide ions. Human CuZn-SOD. Substrates used in these assays were obtained from Sigma Chemical Co. (St. Louis, MO, USA). Resulting data were analysed using the Newman−Keuls test.

The subject of assay [9] is J774.2 murine macrophages. Kind of assay: Cytotoxicity test on macrophages by flow cytometry. The note with it: J774.2 macrophages, 72 h, read-out: Toxicity IC50 Macrophage. The assay is classed as cell-based, mouse. The method, then: as §3
The macrophage line J774.2 [European collection of cell cultures (ECACC) number 91051511] was derived in 1968 from a tumour in a female BALB/c mouse. Macrophages were grown in humidified 95% air, 5% CO2 atmosphere at 37 °C in Minimal Essential Medium (MEM) with 2 mM glutamine and 20% (v/v) inactivated FCS. The cytotoxicity test on macrophages was performed by Flow cytometry analysis according to a method previously described. Briefly, cells were seeded at a density of 5 × 10^4 cells/well in 24-well microplates (Nunc, Naperville, IL, USA). After 48 h incubation, the medium was removed, and fresh medium was added together with each test compound at concentrations from 100 µM to 1 µM and cultured in 500 μL/well volumes for 72 h. Thereafter, cells were recovered by centrifugation, and cell viability was determined by Flow cytometry (FACS Vantage flow cytometer, Becton Dickinson, San Jose, CA, USA) after incubating the cells with propidium iodide ([…]) and fluorescein diacetate (100 ng/mL). The percentage of viability was calculated in comparison with the control cultures. […] Each drug concentration was tested in triplicate in four separate determinations.
In general terms: A flow cytometer gives signals particle by particle.

In assay [10] the test system is parasitic Fe-SOD. Kind of assay: SOD inhibition assay, parasitic Fe-SOD of the Leishmania spp. taken together. The assay is classed as biochemical. The method, then: The previous extraordinary results prompted us to evaluate the inhibitory effect of 3, 5–8 and 10 on the SOD activity. […] We used promastigotes of Leishmania spp. to obtain Fe-SOD by cellular disruption and precipitation and assayed the compounds at concentrations ranging from 100 µM to 0.1 µM in each case.
as §6

For assay [11], the system named is Leishmania infantum amastigote forms. In words: Amastigote test (intracellular forms in J774.2 macrophages), L. infantum. The class given is cell-based. The note with it: 72 h, mean ± SD. The method, then: as §2, §3, §5
For assay [12], the system named is Leishmania donovani amastigote forms. In words: Amastigote test (intracellular forms in J774.2 macrophages), L. donovani. The class given is cell-based. The note with it: 72 h, mean ± SD. The method, then:
as §2, §3, §5

Where only a bound is given, the exact number is not on record here.

T1 sequence (P00441 whole entry): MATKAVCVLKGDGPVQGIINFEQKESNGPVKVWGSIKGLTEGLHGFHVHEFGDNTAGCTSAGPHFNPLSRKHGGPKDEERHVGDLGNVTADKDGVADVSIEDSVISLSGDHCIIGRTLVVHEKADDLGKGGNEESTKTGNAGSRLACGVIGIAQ

As for `CN1CCN(C)CCN(Cc2ccccn2)CC1.O=S(=O)([O-])C(F)(F)F.O=S(=O)([O-])C(F)(F)F.[Mn+2]` [Compound 3], the “ultrastructural alterations of L. braziliensis promastigotes (TEM)” value in [1] is “completely swollen, round and full of empty or lipid vacuoles”. Also, the “ultrastructural alterations of L. infantum promastigotes (TEM)” value in [2] is recorded as “induced agglutination in the parasites”. Further, the half-maximal inhibitory concentration (IC50) was 28.6 ± 3.5 µM in assay [3]; 8.5 ± 0.4 µM in assay [4]; 8.7 ± 0.6 µM in [6]; 9.3 ± 0.3 µM in [7]; > 100 µM in assay [8]; 98.5 ± 6.3 µM in assay [9]. The IC50 is > 100 µM in assay [10], 3.7 ± 1.6 µM in [11] and 11.7 ± 1.3 µM in assay [12]. In assay [5], the “Excretion variation ACETATE, L. infantum” value stood at 18%. Besides, the “Excretion variation SUCCINATE, L. infantum” value in assay [5] turned out to be 32%.

A word on the IC50: it is the midpoint of a concentration-inhibition curve.

These data come from publication PMC6337631, “Effective Tetradentate Compound Complexes against Leishmania spp. that Act on Critical Enzymatic Pathways of These Parasites” (Molecules, 2018).
